Experimental data: the kinase profiling compilation of Christmann-Franck et al. (2016)

What was measured:
Assay in all cases: KINOMEscan competition binding
Settings in all cases: compound 10.0 µM
[1] = system: PIK3CA (human), P42336 [M1043I]
[2] = system: EGFR (human), P00533 [A750P; 747-749 del]
[3] = system: ABL1 (human), P00519 [F317I]
[4] = system: ABL1 (human), P00519 [F317L]
[5] = system: PIK3CA (human), P42336 [E542K]
[6] = system: EGFR (human), P00533 [L858R]
[7] = system: RET (human), P07949 [V804L]
[8] = system: LRRK2 (human), Q5S007 [G2019S]
[9] = system: PIK3CA (human), P42336 [H1047L]
[10] = system: MET (human), P08581 [M1250T]
[11] = system: FLT3 (human), P36888 [D835Y]
[12] = system: BMX (human), P51813 [V600E]
[13] = system: FGFR3 (human), P22607 [G697C]
[14] = system: EGFR (human), P00533 [G719C]

Chain of FGFR3 (human), P22607 [G697C] (P22607 whole entry G697C, looked up): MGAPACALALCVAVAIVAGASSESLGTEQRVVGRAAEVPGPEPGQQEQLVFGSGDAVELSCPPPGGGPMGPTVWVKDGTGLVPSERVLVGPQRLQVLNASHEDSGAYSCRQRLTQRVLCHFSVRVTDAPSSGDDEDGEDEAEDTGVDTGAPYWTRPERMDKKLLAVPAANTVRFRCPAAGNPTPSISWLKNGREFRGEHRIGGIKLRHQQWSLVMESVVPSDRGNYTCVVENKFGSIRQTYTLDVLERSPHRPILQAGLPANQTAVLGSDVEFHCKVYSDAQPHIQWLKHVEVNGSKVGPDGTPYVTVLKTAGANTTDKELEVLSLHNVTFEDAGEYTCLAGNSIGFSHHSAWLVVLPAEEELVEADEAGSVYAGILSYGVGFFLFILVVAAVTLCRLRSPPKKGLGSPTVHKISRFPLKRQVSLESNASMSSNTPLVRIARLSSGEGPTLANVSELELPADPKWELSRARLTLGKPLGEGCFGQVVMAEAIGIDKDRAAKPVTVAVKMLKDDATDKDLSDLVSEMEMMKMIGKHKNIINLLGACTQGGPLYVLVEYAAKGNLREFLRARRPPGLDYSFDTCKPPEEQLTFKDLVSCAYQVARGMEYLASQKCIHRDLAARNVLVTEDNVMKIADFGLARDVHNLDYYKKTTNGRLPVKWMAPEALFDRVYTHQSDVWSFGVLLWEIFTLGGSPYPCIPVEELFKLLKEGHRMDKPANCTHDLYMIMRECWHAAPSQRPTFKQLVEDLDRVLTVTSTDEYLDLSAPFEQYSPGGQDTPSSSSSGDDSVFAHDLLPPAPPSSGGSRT
Chain of PIK3CA (human), P42336 [H1047L] (P42336 whole entry H1047L, looked up): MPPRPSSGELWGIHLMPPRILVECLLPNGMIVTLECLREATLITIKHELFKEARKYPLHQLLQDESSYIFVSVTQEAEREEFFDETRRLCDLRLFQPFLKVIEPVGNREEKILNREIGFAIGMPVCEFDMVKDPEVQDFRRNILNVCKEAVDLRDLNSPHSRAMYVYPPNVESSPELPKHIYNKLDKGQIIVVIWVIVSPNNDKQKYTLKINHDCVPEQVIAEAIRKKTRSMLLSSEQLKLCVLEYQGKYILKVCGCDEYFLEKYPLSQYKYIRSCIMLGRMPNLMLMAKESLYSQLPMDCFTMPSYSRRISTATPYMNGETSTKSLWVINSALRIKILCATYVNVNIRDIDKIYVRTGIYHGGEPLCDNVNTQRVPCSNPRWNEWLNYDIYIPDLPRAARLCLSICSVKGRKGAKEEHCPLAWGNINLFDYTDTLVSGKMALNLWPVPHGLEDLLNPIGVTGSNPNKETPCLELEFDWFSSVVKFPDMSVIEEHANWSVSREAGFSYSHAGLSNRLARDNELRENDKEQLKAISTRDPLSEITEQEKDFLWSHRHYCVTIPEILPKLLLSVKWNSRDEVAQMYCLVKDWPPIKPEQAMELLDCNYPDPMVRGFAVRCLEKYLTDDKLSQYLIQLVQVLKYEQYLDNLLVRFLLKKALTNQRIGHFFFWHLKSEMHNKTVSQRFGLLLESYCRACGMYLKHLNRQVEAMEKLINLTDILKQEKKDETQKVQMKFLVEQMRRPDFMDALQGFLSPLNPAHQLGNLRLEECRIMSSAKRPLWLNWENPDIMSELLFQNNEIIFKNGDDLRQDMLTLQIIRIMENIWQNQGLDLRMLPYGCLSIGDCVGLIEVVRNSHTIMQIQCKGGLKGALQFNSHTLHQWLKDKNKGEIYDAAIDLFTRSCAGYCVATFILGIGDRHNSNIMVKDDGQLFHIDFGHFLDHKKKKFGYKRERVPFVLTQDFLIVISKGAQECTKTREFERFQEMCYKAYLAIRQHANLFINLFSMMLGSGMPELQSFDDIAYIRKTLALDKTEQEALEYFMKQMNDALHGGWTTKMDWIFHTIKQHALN
Chain of PIK3CA (human), P42336 [E542K] (P42336 whole entry E542K, looked up): as the sequence (P42336 whole entry H1047L, looked up) above, with E542K, L1047H counted along it
Chain of ABL1 (human), P00519 [F317I] (P00519 whole entry F317I, looked up): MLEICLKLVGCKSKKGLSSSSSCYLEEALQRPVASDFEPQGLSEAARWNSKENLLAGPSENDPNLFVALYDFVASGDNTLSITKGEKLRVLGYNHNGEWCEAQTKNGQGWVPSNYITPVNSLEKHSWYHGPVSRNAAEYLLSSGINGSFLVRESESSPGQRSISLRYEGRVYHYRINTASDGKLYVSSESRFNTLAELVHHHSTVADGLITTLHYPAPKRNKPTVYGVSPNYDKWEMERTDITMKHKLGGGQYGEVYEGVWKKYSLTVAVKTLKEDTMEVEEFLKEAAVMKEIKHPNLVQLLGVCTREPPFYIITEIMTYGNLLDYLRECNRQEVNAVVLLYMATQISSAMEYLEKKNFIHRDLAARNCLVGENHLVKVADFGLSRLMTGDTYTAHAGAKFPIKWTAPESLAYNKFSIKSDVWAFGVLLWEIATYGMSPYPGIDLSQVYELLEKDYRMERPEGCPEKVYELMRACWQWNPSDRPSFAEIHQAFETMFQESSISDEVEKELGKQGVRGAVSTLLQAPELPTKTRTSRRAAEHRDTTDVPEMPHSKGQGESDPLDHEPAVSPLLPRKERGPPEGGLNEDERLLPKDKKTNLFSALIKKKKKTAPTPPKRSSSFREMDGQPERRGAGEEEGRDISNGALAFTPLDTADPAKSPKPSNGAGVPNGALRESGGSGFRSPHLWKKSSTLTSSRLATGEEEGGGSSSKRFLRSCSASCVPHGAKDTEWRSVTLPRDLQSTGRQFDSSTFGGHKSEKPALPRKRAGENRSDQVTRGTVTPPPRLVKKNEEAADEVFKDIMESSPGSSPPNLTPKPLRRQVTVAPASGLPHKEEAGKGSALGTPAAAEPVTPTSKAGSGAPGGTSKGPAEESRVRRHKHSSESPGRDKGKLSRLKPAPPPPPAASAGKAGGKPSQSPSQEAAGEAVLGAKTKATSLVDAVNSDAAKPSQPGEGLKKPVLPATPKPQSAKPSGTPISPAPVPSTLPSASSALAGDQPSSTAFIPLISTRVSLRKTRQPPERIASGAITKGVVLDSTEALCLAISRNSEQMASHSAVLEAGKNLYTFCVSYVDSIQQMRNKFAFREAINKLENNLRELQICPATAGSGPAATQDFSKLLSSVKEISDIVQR
Chain of PIK3CA (human), P42336 [M1043I] (P42336 whole entry M1043I, looked up): as the sequence (P42336 whole entry H1047L, looked up) above, with M1043I, L1047H counted along it
Chain of ABL1 (human), P00519 [F317L] (P00519 whole entry F317L, looked up): as the sequence (P00519 whole entry F317I, looked up) above, with I317L counted along it
Chain of BMX (human), P51813 [V600E] (P51813 whole entry, looked up, stated change not applied): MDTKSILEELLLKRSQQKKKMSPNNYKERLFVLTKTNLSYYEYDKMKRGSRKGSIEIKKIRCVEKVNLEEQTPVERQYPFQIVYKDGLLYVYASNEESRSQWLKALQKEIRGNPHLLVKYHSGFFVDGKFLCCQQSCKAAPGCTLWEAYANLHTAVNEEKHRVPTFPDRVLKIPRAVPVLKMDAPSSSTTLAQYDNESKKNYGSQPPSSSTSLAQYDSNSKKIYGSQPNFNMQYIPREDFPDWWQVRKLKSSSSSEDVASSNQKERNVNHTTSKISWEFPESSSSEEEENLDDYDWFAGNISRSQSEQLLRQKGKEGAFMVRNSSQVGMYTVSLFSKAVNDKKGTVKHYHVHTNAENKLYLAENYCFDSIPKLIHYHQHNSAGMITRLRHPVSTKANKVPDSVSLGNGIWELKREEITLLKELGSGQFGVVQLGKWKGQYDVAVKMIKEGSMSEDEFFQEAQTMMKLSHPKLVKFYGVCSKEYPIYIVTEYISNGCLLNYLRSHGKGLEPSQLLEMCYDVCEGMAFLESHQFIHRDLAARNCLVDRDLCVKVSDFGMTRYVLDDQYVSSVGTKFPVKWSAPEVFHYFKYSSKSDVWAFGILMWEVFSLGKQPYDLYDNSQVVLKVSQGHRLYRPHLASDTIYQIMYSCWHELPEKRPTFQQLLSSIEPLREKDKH
Chain of RET (human), P07949 [V804L] (P07949 whole entry V804L, looked up): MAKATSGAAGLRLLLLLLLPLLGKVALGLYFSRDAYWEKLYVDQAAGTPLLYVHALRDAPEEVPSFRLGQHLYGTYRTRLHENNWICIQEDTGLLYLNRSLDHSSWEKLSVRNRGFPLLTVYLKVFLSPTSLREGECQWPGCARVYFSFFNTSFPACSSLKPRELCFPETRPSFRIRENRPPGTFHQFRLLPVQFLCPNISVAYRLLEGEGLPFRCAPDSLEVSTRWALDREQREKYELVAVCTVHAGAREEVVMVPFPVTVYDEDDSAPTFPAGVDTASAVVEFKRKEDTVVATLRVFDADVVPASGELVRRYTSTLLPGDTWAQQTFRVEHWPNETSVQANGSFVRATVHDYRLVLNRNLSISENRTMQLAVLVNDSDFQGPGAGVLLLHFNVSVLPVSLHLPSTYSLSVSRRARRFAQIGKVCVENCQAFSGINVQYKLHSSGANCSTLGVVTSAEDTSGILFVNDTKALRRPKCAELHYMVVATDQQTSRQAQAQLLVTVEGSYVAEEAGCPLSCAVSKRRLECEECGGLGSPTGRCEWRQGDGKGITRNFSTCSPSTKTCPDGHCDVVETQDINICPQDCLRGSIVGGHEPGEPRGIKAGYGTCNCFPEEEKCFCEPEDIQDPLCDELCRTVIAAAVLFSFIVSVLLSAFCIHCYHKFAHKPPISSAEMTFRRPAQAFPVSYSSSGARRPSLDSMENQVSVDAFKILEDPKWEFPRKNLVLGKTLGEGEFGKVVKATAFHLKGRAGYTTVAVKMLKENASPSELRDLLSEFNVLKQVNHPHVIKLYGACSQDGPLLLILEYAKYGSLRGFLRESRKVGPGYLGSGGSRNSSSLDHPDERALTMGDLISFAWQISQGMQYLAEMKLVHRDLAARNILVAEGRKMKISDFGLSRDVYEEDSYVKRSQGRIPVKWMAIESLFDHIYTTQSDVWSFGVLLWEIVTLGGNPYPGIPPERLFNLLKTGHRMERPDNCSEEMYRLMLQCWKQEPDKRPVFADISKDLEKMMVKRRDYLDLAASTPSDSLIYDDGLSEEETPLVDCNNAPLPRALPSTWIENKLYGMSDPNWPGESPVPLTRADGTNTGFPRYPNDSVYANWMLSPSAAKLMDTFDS

Row | SMILES | kinase still bound, per cent of control [1] [%] | kinase still bound, per cent of control [2] [%] | kinase still bound, per cent of control [3] [%] | kinase still bound, per cent of control [4] [%] | kinase still bound, per cent of control [5] [%] | kinase still bound, per cent of control [6] [%] | kinase still bound, per cent of control [7] [%] | kinase still bound, per cent of control [8] [%] | kinase still bound, per cent of control [9] [%] | kinase still bound, per cent of control [10] [%] | kinase still bound, per cent of control [11] [%] | kinase still bound, per cent of control [12] [%] | kinase still bound, per cent of control [13] [%] | kinase still bound, per cent of control [14] [%]
1 | CCC(=O)N1CCN(c2ccc(-n3c(=O)ccc4cnc5ccc(-c6cnc7ccccc7c6)cc5c43)cc2C(F)(F)F)CC1 | 8.6 | 100 | 100 | 100 | 1 | 100 | 66 | 99 | 2.6 | 79 | 16 | 88 | – | –
2 | CCN(CC)CCCCNc1ncc2c(n1)N(C)C(=O)N(c1c(Cl)c(OC)cc(OC)c1Cl)C2 | 100 | 100 | 100 | 100 | 100 | 100 | 100 | – | 100 | 100 | 100 | 100 | 1.3 | 100
3 | COc1cc(C(=O)NC2CCN(C)CC2)ccc1Nc1ncc2c(n1)N(C1CCCC1)C(C)CC(=O)N2C (stereo not given) | – | 100 | 100 | 100 | – | 100 | 100 | – | – | – | 100 | 100 | 100 | 100
4 | COc1cc(C(=O)NC2CCN(C)CC2)ccc1Nc1ncc2c(n1)N(C1CCCC1)CCC(=O)N2C(C)C | 100 | 100 | 100 | 100 | 100 | 100 | 0 | – | 100 | 100 | 100 | 100 | 100 | 100
5 | C=CC(=O)Nc1ccc(CN(C(=O)Nc2c(Cl)c(OC)cc(OC)c2Cl)c2cc(Nc3ccc(N4CCN(C)CC4)cc3)ncn2)cc1 | – | 0.55 | 100 | 100 | – | 0.2 | 100 | – | – | – | 100 | 100 | 1.4 | 0.1
6 | Cc1n[nH]c2ccc(-c3cncc(OC[C@@H](N)Cc4c[nH]c5ccccc45)c3)cc12 | – | – | 100 | 100 | – | – | 12 | – | – | – | 0.2 | 100 | 100 | –
7 | CC[C@@H]1C(=O)N(C)c2cnc(Nc3ccc(C(=O)NC4CCN(C)CC4)cc3OC)nc2N1C1CCCC1 | – | – | 100 | 100 | – | – | 100 | – | – | – | 100 | 100 | 100 | –
8 | C=CC(=O)Nc1cccc(Oc2nc(Nc3ccc(N4CCN(C)CC4)cc3OC)ncc2Cl)c1 | – | 0.05 | 100 | 100 | – | 0.1 | 100 | – | – | – | 0.8 | 100 | 100 | 0.35
9 | CS(=O)(=O)N1CCN(Cc2cc3nc(-c4cccc5[nH]ncc45)nc(N4CCOCC4)c3s2)CC1 | 19 | 100 | 100 | 100 | 0.45 | 100 | 100 | – | 9.8 | 100 | 100 | 100 | 100 | 100

The remaining lines, values ahead:

Row | kinase still bound, per cent of control [1] [%] | kinase still bound, per cent of control [2] [%] | kinase still bound, per cent of control [3] [%] | kinase still bound, per cent of control [4] [%] | kinase still bound, per cent of control [5] [%] | kinase still bound, per cent of control [6] [%] | kinase still bound, per cent of control [7] [%] | kinase still bound, per cent of control [8] [%] | kinase still bound, per cent of control [9] [%] | kinase still bound, per cent of control [10] [%] | kinase still bound, per cent of control [11] [%] | kinase still bound, per cent of control [12] [%] | kinase still bound, per cent of control [13] [%] | kinase still bound, per cent of control [14] [%] | SMILES
10 | – | 100 | 100 | 100 | 2.8 | 100 | 100 | – | 4.8 | – | 12 | 100 | 100 | 100 | Cn1c(=O)n(-c2ccc(C(C)(C)C#N)cc2)c2c3cc(-c4cnc5ccccc5c4)ccc3ncc21
11 | – | 100 | 30 | 28 | – | 100 | 0.2 | – | – | – | 0.1 | 100 | 20 | 100 | CNC(=O)c1ccc(Nc2cc(Nc3ccccc3S(=O)(=O)C(C)C)c3cc[nH]c3n2)nc1
12 | – | 100 | 13 | 22 | – | 100 | 100 | – | – | – | 100 | 0.15 | 100 | 100 | Cc1ccc(C(=O)Nc2cccc(C(F)(F)F)c2)cc1Nc1cncc(C(N)=O)c1
13 | 100 | 100 | 5 | 17 | 100 | 100 | 100 | – | 100 | 100 | 100 | 100 | 100 | 100 | COc1cc(N2CCN(C)CC2)ccc1Nc1ncc2c(n1)N(C)c1ccccc1C(=O)N2C
14 | 100 | 100 | 100 | 100 | 100 | 100 | 100 | – | 100 | 100 | 19 | 100 | 100 | 100 | OCCCNc1cc(-c2ccnc(Nc3cccc(Cl)c3)n2)ccn1
